Data published in publication doi:10.1101/2021.09.30.462449v1 (biorxiv, 2021).

Experiments:
Experiment in all cases: biochemical
Settings in all cases: read-out: % inhibition mean (Lanthascreen)
MAP2K6 (MKK6) = MAP2K6 (MKK6) (Homo sapiens, UniProt P52564)
ACVRL1 (ALK1) = ACVRL1 (ALK1) (Homo sapiens, UniProt P37023)
STK32B (YANK2) = STK32B (YANK2) (Homo sapiens, UniProt Q9NY57)
KIT D816V = KIT D816V (Homo sapiens, UniProt P10721, D816V)
[1] = target: MAP2K1 (MEK1) S218D S222D (Homo sapiens, UniProt Q02750, S218D/S222D)
NLK = NLK (Homo sapiens, UniProt Q9UBE8)
EPHA6 = EPHA6 (Homo sapiens, UniProt Q9UF33)
TTK = TTK (Homo sapiens, UniProt P33981)
MAP3K11 (MLK3) = MAP3K11 (MLK3) (Homo sapiens, UniProt Q16584)
STK32C (YANK3) = STK32C (YANK3) (Homo sapiens, UniProt Q86UX6)
BRAF = BRAF (Homo sapiens, UniProt P15056)
CDK2/cyclin O = CDK2/cyclin O (Homo sapiens, UniProt P24941)
DDR2 N456S = DDR2 N456S (Homo sapiens, UniProt Q16832, N456S)
IRAK3 = IRAK3 (Homo sapiens, UniProt Q9Y616)
KIT T670E = KIT T670E (Homo sapiens, UniProt P10721, T670E)
MAPK10 (JNK3) = MAPK10 (JNK3) (Homo sapiens, UniProt P53779)
CAMKK2 (CaMKK beta) = CAMKK2 (CaMKK beta) (Homo sapiens, UniProt Q96RR4)
TLK2 = TLK2 (Homo sapiens, UniProt Q86UE8)
MYLK4 = MYLK4 (Homo sapiens, UniProt Q86YV6)
MAP3K2 (MEKK2) = MAP3K2 (MEKK2) (Homo sapiens, UniProt Q9Y2U5)
STK38L (NDR2) = STK38L (NDR2) (Homo sapiens, UniProt Q9Y2H1)
GRK1 = GRK1 (Homo sapiens, UniProt Q15835)
SIK1 = SIK1 (Homo sapiens, UniProt P57059)
MAPK15 (ERK7) = MAPK15 (ERK7) (Homo sapiens, UniProt Q8TD08)
MLK4 = MLK4 (Homo sapiens, UniProt Q5TCX8)
TAOK3 (JIK) = TAOK3 (JIK) (Homo sapiens, UniProt Q9H2K8)
NEK8 = NEK8 (Homo sapiens, UniProt Q86SG6)
TESK2 = TESK2 (Homo sapiens, UniProt Q96S53)
KIT D816H = KIT D816H (Homo sapiens, UniProt P10721, D816H)
KIT D816H, sequence (P10721 whole entry D816H): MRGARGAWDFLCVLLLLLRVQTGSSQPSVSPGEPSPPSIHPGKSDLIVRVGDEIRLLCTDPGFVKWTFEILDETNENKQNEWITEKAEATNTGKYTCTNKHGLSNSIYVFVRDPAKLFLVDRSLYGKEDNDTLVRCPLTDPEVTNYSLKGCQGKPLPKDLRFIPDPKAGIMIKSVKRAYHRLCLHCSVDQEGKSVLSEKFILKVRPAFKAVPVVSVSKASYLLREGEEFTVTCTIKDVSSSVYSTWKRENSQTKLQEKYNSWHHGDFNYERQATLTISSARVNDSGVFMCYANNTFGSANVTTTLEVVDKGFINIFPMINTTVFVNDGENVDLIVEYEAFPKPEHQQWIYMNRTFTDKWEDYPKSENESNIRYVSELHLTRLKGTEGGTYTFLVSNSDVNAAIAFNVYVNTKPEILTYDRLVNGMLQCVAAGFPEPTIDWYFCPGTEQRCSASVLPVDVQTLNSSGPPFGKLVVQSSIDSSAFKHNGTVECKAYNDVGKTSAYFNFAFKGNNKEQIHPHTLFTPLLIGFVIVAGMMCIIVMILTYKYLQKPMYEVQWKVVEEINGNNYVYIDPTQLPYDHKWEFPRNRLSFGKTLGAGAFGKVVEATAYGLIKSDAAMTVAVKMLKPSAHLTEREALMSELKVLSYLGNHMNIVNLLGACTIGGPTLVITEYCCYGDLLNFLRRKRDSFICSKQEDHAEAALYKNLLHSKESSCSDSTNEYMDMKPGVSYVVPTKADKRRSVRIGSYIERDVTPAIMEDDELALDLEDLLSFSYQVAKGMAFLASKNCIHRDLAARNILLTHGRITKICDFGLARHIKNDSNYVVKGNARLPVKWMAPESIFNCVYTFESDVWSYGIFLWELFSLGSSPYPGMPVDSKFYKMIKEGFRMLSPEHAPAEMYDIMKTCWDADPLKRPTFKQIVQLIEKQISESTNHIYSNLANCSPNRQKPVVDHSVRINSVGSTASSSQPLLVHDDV

TESK2, sequence (Q96S53 whole entry): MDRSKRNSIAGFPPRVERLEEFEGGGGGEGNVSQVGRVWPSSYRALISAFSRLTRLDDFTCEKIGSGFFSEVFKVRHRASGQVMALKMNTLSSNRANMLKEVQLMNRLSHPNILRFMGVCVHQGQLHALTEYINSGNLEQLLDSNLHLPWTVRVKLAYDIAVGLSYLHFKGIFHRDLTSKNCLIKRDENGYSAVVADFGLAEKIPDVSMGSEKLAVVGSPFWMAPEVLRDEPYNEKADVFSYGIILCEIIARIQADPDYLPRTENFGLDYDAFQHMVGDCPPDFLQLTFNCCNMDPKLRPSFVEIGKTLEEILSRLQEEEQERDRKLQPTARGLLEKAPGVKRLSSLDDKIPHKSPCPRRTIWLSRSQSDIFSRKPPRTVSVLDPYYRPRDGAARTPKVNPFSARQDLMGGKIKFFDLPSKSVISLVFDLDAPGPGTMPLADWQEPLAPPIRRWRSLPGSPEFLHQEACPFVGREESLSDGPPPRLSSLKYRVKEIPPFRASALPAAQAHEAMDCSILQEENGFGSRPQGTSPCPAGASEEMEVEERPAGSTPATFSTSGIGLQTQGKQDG
MLK4, sequence (Q5TCX8 whole entry): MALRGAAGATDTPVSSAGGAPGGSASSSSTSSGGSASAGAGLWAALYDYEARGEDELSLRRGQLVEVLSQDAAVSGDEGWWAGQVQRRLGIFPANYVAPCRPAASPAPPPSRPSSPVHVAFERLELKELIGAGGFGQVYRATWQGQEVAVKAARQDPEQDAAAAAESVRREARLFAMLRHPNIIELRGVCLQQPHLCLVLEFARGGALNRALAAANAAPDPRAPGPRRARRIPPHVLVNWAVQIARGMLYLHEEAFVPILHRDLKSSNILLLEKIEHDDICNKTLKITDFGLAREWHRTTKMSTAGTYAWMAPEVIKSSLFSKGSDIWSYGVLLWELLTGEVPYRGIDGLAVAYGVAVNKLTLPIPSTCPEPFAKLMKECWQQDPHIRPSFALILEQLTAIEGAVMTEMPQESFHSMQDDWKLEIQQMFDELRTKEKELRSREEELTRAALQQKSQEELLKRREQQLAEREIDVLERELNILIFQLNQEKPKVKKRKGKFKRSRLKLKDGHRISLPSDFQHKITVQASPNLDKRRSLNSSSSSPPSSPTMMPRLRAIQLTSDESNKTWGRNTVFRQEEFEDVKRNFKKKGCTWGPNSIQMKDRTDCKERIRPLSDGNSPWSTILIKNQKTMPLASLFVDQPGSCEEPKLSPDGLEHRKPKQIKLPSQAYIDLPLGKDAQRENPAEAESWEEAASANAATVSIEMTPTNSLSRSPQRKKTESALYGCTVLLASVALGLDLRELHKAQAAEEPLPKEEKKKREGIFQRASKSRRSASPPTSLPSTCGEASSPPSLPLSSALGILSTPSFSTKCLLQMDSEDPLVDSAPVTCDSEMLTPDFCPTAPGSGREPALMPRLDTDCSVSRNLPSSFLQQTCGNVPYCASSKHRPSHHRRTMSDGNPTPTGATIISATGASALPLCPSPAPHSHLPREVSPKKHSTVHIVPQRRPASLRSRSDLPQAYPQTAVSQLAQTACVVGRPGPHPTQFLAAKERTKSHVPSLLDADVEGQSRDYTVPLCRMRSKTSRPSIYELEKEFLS
TAOK3 (JIK), sequence (Q9H2K8 whole entry): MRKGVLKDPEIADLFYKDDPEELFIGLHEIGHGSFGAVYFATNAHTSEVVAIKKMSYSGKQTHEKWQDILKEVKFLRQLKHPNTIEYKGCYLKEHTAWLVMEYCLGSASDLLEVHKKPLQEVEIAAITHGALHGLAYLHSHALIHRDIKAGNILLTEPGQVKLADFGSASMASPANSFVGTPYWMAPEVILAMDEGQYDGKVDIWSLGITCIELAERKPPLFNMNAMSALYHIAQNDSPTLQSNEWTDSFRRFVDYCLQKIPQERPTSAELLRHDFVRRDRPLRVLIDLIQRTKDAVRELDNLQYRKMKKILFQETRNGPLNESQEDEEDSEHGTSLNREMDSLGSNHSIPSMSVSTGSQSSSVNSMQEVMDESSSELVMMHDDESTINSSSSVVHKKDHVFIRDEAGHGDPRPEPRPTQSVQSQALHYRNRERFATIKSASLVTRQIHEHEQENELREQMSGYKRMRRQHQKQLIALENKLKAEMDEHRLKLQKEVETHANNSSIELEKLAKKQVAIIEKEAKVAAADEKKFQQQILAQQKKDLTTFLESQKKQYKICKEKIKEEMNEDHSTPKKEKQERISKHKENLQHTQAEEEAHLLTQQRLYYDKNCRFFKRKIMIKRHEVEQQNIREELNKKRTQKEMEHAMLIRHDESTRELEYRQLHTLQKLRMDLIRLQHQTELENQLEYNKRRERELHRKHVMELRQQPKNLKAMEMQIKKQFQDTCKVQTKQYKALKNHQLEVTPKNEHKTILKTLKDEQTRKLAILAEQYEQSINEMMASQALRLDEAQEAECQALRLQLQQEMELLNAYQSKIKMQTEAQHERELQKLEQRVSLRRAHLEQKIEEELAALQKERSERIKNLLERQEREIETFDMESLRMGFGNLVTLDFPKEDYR
SIK1, sequence (P57059 whole entry): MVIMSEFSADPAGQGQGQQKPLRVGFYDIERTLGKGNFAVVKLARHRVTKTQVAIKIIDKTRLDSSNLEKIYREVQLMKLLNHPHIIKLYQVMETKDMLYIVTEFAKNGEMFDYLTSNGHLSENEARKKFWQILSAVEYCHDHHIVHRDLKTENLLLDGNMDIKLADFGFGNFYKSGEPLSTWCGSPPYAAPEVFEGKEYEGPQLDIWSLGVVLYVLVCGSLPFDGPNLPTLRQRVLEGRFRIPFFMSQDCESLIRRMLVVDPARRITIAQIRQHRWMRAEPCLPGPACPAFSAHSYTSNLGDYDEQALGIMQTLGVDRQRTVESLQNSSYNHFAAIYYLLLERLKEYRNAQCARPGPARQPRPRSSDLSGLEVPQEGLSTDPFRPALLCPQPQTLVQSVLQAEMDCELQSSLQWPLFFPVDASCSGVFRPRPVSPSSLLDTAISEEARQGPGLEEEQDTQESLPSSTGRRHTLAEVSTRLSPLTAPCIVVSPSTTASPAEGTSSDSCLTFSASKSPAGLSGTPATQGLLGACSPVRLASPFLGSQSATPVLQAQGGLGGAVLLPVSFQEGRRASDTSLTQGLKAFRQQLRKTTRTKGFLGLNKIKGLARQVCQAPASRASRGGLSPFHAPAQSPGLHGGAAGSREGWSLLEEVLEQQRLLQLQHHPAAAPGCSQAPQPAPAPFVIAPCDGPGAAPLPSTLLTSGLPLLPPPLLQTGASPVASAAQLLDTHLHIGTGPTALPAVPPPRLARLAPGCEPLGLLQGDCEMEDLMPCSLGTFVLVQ
STK32B (YANK2), sequence (Q9NY57 whole entry): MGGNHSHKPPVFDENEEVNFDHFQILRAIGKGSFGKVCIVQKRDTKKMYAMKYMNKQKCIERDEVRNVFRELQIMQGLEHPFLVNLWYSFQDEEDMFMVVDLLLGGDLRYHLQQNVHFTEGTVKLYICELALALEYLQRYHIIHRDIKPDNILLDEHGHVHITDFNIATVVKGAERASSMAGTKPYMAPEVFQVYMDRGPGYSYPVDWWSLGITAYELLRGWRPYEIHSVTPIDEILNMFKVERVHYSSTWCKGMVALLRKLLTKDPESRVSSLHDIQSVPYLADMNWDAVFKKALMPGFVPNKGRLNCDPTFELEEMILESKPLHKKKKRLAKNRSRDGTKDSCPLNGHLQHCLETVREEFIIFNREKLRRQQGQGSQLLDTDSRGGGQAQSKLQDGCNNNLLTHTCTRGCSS
MAP2K1 (MEK1) S218D S222D, sequence (Q02750 whole entry S218D/S222D): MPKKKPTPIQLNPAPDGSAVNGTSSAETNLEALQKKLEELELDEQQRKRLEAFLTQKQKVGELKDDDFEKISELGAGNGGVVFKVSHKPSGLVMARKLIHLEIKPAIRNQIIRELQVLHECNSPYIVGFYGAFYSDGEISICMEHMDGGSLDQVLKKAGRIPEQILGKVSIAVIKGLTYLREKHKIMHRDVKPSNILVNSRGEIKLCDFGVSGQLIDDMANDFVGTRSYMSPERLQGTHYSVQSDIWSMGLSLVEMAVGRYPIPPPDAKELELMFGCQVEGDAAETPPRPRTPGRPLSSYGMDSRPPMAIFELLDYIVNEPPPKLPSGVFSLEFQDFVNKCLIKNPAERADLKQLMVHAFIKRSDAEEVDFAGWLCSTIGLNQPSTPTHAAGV

COc1ccc2nc3cc(Cl)ccc3c(Nc3cc(CN4CCCC4)c(O)c(CN4CCCC4)c3)c2n1 [Pyronaridine, 4-[(7-Chloro-2-methoxybenzo[b][1,5]naphthyridin-10-yl)amino]-2,6-bis(1-pyrrolidinylmethyl)phenol phosphate (1:4)]
inhibition at 1 µM (MAP2K6 (MKK6)): 9%
inhibition at 1 µM (ACVRL1 (ALK1)): 12%
inhibition at 1 µM (STK32B (YANK2)): 0%
inhibition at 1 µM (KIT D816V): -3%
inhibition at 1 µM [1]: 3%
inhibition at 1 µM (NLK): 8%
inhibition at 1 µM (EPHA6): -3%
inhibition at 1 µM (TTK): 4%
inhibition at 1 µM (MAP3K11 (MLK3)): 2%
inhibition at 1 µM (STK32C (YANK3)): 1%
inhibition at 1 µM (BRAF): -11%
inhibition at 1 µM (CDK2/cyclin O): 2%
inhibition at 1 µM (DDR2 N456S): 17%
inhibition at 1 µM (IRAK3): -5%
inhibition at 1 µM (KIT T670E): 1%
inhibition at 1 µM (MAPK10 (JNK3)): 5%
inhibition at 1 µM (CAMKK2 (CaMKK beta)): -1%
inhibition at 1 µM (TLK2): -2%
inhibition at 1 µM (MYLK4): -9%
inhibition at 1 µM (MAP3K2 (MEKK2)): 7%
inhibition at 1 µM (STK38L (NDR2)): -7%
inhibition at 1 µM (GRK1): 1%
inhibition at 1 µM (SIK1): 2%
inhibition at 1 µM (MAPK15 (ERK7)): -11%
inhibition at 1 µM (MLK4): 8%
inhibition at 1 µM (TAOK3 (JIK)): -2%
inhibition at 1 µM (NEK8): 0%
inhibition at 1 µM (TESK2): -3%
inhibition at 1 µM (KIT D816H): -7%
